Assay [1] has as its system WIL-FL*. The assay is described as follows: FP artefact counterscreen (compounds added after 24 h of proteinase K treatment). The note with it: compound added after 24 h PK treatment; mean ± sd, n=3. The assay is classed as biochemical, human. Details: concentration or dose not given beside the values. The method, then:
Secondly, to remove compounds that interfere with the FP measurement, the primary screen was repeated in triplicate but compounds were added after 24 h of proteinase K treatment (FIG. 1f). […] Bona fide hits should retain no FP beyond the low control.

The target of assay [2] is T1, WIL-FL* (Homo sapiens, UniProt P01721, K101C, form not given). Put plainly: PCFP assay with thermolysin. The note with it: mean ± sd, n=3; 6.75 μM compound.
For assay [3], the target named is T1, WIL-FL*. The assay is described as follows: Protease-coupled fluorescence polarization (PCFP) assay with proteinase K. The note with it: for EC50: from dose response curves measured during the screening process; for PK activity (%): secondary screen, mean ± sd, n=3, 6.75 μM compound, FP retention after 24 h at 22° C., normalized to high and low controls.
For assay [4], the target named is T2, WIL-FL (Homo sapiens, UniProt P01721). Put plainly: Kinetic unfolding in urea. The format is biochemical. The note with it: 5 at 50 μM, WIL-FL 5 μM; 3.57 s^−1 for WIL-FL alone. The method, then:
Kinetic unfolding. WIL-FL (5 μM) in 50 mM sodium phosphate buffer, pH 7.0, containing 50 μM 5 was rapidly diluted into urea in 50 mM sodium phosphate buffer and 50 μM 5 using an APP SX-20 stopped flow fluorimeter at 37° C. The change in fluorescence emission >335 nm was measured as a function of time (λex=280 nm). […] Kinetic transients were fitted to single exponential curves and rates extracted.

The target in assay [5] is T2, WIL-FL. The assay is described as follows: Equilibrium unfolding, urea titration. The settings on record: 1 at 100 μM or 5 at 50 μM, WIL-FL 5 μM; 1.4 M without ligand. The format is biochemical. The method, then:
Equilibrium unfolding. WIL-FL (5 μM) was titrated against urea in 50 mM sodium phosphate buffer, pH 7.0, containing 50 μM 5 or 100 μM 1. After incubation overnight at 25° C., intrinsic tryptophan fluorescence emission spectra were measured using a Jasco 8600 fluorimeter (μex=280 nm, μem=300-420 nm). Average wavelength (also known as center of spectral mass) values were calculated using the equation: […]
λi and Ii are the are the wavelength and intensity at i, respectively. Average wavelength data were normalized for comparison. […] Midpoint urea concentrations were calculated by fitting the titration data to a 2-state unfolding equation: […]
x is the urea concentration (M), G is the free energy of unfolding (kJ mol^−1), m is the denaturant dependence of the unfolding reaction (kJ mol^−1 M^−1), R is the ideal gas constant, T is the temperature in K, a and c are the fluorescence of the folded and unfolded states, and b and d are the denaturant dependence of the fluorescence of the folded and unfolded states, respectively.

Assay [6] has as its target T2, WIL-FL. The assay is described as follows: PK proteolysis of unlabeled WIL-FL by SDS-PAGE. The settings on record: WIL-FL 10 μM, small molecule 100 μM, t=2 h.
Experimental: The experiment in FIG. 1b measured simultaneous proteolysis of labeled and unlabeled LC by adding 20 nM WIL-FL* or JTO-FL* to 5 μM WIL-FL or JTO-FL, respectively. Fluorescein fluorescence images of the SDS-PAGE gels were recorded, after which the gels were Coomassie stained and imaged.

`CC(C)CC1NC(=O)N(CC(=O)Nc2ccc(C(F)(F)F)cc2)C1=O` (racemic) [Compound 8]: the “Counterscreen activity (%)” value in the assay on WIL-FL* [1] was −2.05 ± 2.9%. Moreover, the “Thermolysin activity (%)” value at WIL-FL* [2] is given as 50.8 ± 1.7%. Moreover, on WIL-FL* [3], the EC50 turned out to be 7.36 µM and the “PK activity (%)” value was 48.0 ± 2.4%.

As to `CCOC(=O)Cc1c(C)c2ccc(N(CC)CC)cc2oc1=O` [Compound 2], in the assay on WIL-FL* [1], the “Counterscreen activity (%)” value was −4.13 ± 5.2%. In addition, on WIL-FL* [2], the “Thermolysin activity (%)” value was 33.8 ± 3.1%. In addition, at WIL-FL* [3], a half-maximal effect (EC50) was put at 6.92 µM and the “PK activity (%)” value was 37.8 ± 1.4%.

As to `Cc1cc(=O)oc2cc(OC(C)c3ccccc3)ccc12` (stereo not shown) [Compound 3], the “Counterscreen activity (%)” value in the assay with WIL-FL* [1] is given as −2.52 ± 5.8%. Further, the “Thermolysin activity (%)” value on WIL-FL* [2] stood at 38.7 ± 3.7%. Further, the “PK activity (%)” value at WIL-FL* [3] was found to be 43.3 ± 1.5%.

Take `CC(Oc1ccc(/C=C(\C#N)C(N)=O)cc1)c1ccccc1` (stereo not shown) [Compound 4]: in the assay with WIL-FL* [1], the “Counterscreen activity (%)” value was −7.4 ± 4.0%. Further, at WIL-FL* [2], the “Thermolysin activity (%)” value is 40.4 ± 1.2%. For the same compound, on WIL-FL* [3], the concentration for a half-maximal effect (EC50) worked out at 6.33 µM and the “PK activity (%)” value amounted to 48.9 ± 2.6%.

As to `Cc1cc(O)nc(N/N=C/C=C/c2ccccc2[N+](=O)[O-])n1` [Compound 5], the “unfolding rate constant (extrapolated to the absence of denaturant)” value at WIL-FL [4] is 2.43 s⁻¹. For the same compound, the “midpoint concentration of urea required to unfold the FL LC” value on WIL-FL [5] came to 2.0 M. The “Counterscreen activity (%)” value in the assay on WIL-FL* [1] is 8.04 ± 2.6%. Further, the “Thermolysin activity (%)” value at WIL-FL* [2] worked out at 61.1 ± 5.0%. In addition, on WIL-FL* [3], the response was half-maximal at 5.51 µM (EC50) and the “PK activity (%)” value came out at 65.2 ± 2.8%.

Consider `CC1CCCCC12NC(=O)N(CC(=O)Nc1ccc(C(F)(F)F)cc1)C2=O` (stereo not shown) [Compound 7], for which, in the assay on WIL-FL* [1], the “Counterscreen activity (%)” value turned out to be 2.51 ± 4.7%. Further, on WIL-FL* [2], the “Thermolysin activity (%)” value is on record as 26.3 ± 1.7%. At WIL-FL* [3], the EC50 was 5.87 µM and the “PK activity (%)” value was 29.3 ± 2.5%.

For `CCN(CC)c1ccc2ccc(=O)oc2c1` [Compound 9], the “protection of WIL-FL against PK proteolysis” value at WIL-FL [6] is given as “stabilizes WIL-FL, but is less efficacious than 1”. The “Counterscreen activity (%)” value in the assay with WIL-FL* [1] is reported as −3.45 ± 3.89%. Further, the “Thermolysin activity (%)” value at WIL-FL* [2] turned out to be 27.1 ± 1.3%. At WIL-FL* [3], the EC50 amounted to 7.9 µM and the “PK activity (%)” value is recorded as 37.9 ± 1.1%.

For the compound `CCN(CC)c1ccc2c(C)c(Cl)c(=O)oc2c1` [Compound 10], the “Counterscreen activity (%)” value in the assay on WIL-FL* [1] is recorded as −1.54 ± 2.4%. Moreover, on WIL-FL* [2], the “Thermolysin activity (%)” value was determined as 55.5 ± 3.3%. Moreover, at WIL-FL* [3], a half-maximal response (EC50) required 4 µM and the “PK activity (%)” value was determined as 48.0 ± 3.8%.

Consider `CCN(CC)c1ccc2c(C)c(I)c(=O)oc2c1` [Compound 11], for which, in the assay on WIL-FL* [1], the “Counterscreen activity (%)” value was 0.94 ± 3.9%. The “Thermolysin activity (%)” value at WIL-FL* [2] was determined as 45.7 ± 7.0%. For the same compound, on WIL-FL* [3], the midpoint of the response, the EC50, lay at 4.18 µM and the “PK activity (%)” value worked out at 58.7 ± 2.0%.

Take `CCN(CC)c1ccc2c(C)c(CN3CCOCC3)c(=O)oc2c1` [Compound 12]: the “Counterscreen activity (%)” value in the assay with WIL-FL* [1] worked out at 0.41 ± 2.5%. The “Thermolysin activity (%)” value on WIL-FL* [2] worked out at 30.2 ± 4.2%. Moreover, at WIL-FL* [3], the half-maximal effective concentration (EC50) was determined as 11.3 µM and the “PK activity (%)” value is given as 37.2 ± 7.3%.

On to `CCN(CC)c1ccc2c(CN3CCOCC3)cc(=O)oc2c1` [Compound 13], for which the “Counterscreen activity (%)” value in the assay with WIL-FL* [1] is −4.10 ± 1.5%. Besides, on WIL-FL* [2], the “Thermolysin activity (%)” value is on record as 23.3 ± 8.5%. Besides, at WIL-FL* [3], the EC50 is 9.15 µM and the “PK activity (%)” value is recorded as 4.21 ± 4.4%.

As for `CCN(CC)c1ccc2c(C)c(CC(C)=O)c(=O)oc2c1` [Compound 14], the “Counterscreen activity (%)” value with WIL-FL* [1] amounted to 1.67 ± 4.7%. Further, on WIL-FL* [2], the “Thermolysin activity (%)” value was determined as 34.8 ± 3.1%. Besides, at WIL-FL* [3], the midpoint of the response, the EC50, lay at 9.04 µM and the “PK activity (%)” value worked out at 41.9 ± 3.0%.

On to `CC(Oc1ccc2ccc(=O)oc2c1)c1ccccc1` (stereo not shown) [Compound 15], for which the “Counterscreen activity (%)” value with WIL-FL* [1] is recorded as −4.35 ± 5.6%. Moreover, the “Thermolysin activity (%)” value on WIL-FL* [2] is 18.3 ± 4.9%. At WIL-FL* [3], it took 9.28 µM to reach a half-maximal effect (EC50) and the “PK activity (%)” value came out at 34.2 ± 3.0%.

As for `CN(C)c1ccc(C2OCC(Cl)([N+](=O)O)CO2)cc1` (stereo not shown) [Compound 16], the “Counterscreen activity (%)” value with WIL-FL* [1] is on record as −3.09 ± 3.0%. For the same compound, the “Thermolysin activity (%)” value at WIL-FL* [2] worked out at 29.1 ± 0.3%. Further, at WIL-FL* [3], the EC50 stood at 6.73 µM and the “PK activity (%)” value stood at 50.5 ± 5.3%.

(Values after US11945806B2, “Stabilization of amyloidogenic immunoglobulin light chains” (The Scripps Research Institute, priority 2019, dated 2024).)
